Entries after “also recorded” stand apart in the source; their conditions may differ.
Experiments:
Type in all cases: in vivo
[1] = tested on: barley (Hordeum vulagare L. cv Haruna-nijo); assay: Side effects of spread auxin on the plants (leaf withering)
Source text: (§1) In an experiment to verify the effect of an auxin, the above-described nursery soil for horticultural was used. In addition, to facilitate the control of an auxin aqueous solution treatment, each pair of two rectangular planter boxes (60 mm×60 mm×100 mm (length×width×height), AGC TECHNO GLASS CO., LTD., Plant Box (Model No. CUL-JAR300)) were vertically stacked on each other. A hole having a diameter of about 1 cm was formed at the bottom center of the upper box. A 6-cm wick for an alcohol lamp with a knot was passed through the hole. Then, 300 ml of vermiculite (NITTAI Co., Ltd., vermiculite for agricultural and horticultural use) was packed thereabove. In the lower box, 0.2% (v/v) of HYPONEX (HYPONeX JAPAN CORP., LTD.) was placed as a nutrient water source for plants. Seeds of Hordeum vulagare L. cv Haruna-nijo having been stored in the dark at 4° C. were stimulated to germinate in the dark at 25° C. for 48 hours. The germinated seeds were sown at four seeds per pot at the four corners of the upper container. These sown seeds were grown in an artificial climate chamber (Nippon Medical & Chemical Instruments Co., Ltd., BIOTRON LH300RDS) under conditions of 20° C. during the day, 15° C. at night, and a 16-hour photoperiod. As the light source, 20 plant growing fluorescent tubes were used (16 tubes; National FL40S FR-P, and 4 tubes; National, FL20S FR-P).
(§2) Also in this cultivation method, the fifth leaves emerge and start to develop on Day 18 or 19 after the sowing as in the case where the culture soil was used, where the day of the sowing is regarded as Day 0. The plants were cultivated under high-temperature conditions of 30° C. during the day, 25° C. at night, and a 16-hour photoperiod from Day 19 after the sowing. Thus, a high-temperature treatment was conducted for five days (120 hours). Thereafter (on Day 24 after the sowing), the conditions were changed back to the normal conditions of 20° C. during the day, 15° C. at night, and a 16-hour photoperiod.
First, 10^−3 M, 10^−2 M, and 10^−1 M stock solutions in dimethyl sulfoxide (DMSO: Wako Pure Chemical Industries, Ltd., Production Code: 043-07216) were prepared by using each of indole-3-acetic acid (IAA: Wako Pure Chemical Industries, Ltd., Production Code: 94-00183), 1-naphthyl acetic acid (NAA: Wako Pure Chemical Industries, Ltd., Production Code: 148-00092), and 2,4-dichlorophenoxyacetic acid (2,4-D: Wako Pure Chemical Industries, Ltd., Production Code: 040-18532). The stock solutions were stored in the dark at −20° C. until used. These stock solutions were thawed immediately before spread, and each were diluted 1000-fold with distilled water. Thus, solutions were prepared at three levels of 10^−6 M, 10^−5 M, and 10^−4 M, and used as auxin aqueous solutions. […]

[2] = tested on: barley (Hordeum vulagare L. cv Haruna-nijo); assay: Anther length at heading stage after spreading auxin aqueous solutions; details: control groups (suitable temperature cultivation); 10^−6 M, 10^−5 M or 10^−4 M
Source text: as §1
as §2, with “photoperiod. […]” for “photoperiod.”

[3] = tested on: barley (Hordeum vulagare L. cv Haruna-nijo); assay: Pollen maturity, potassium iodide staining of anthers; details: control groups (suitable temperature cultivation); 10^−6 M, 10^−5 M or 10^−4 M
Source text: as §1
as §2, with “photoperiod. […]” for “photoperiod.”

[4] = tested on: barley (Hordeum vulagare L. cv Haruna-nijo); assay: Seed fertility (seeds produced in panicles) after auxin spreading; details: for seeds produced in panicles: high-temperature treated groups, 10^−4 M
Source text: as §1
as §2, with “photoperiod. […]” for “photoperiod.”

[5] = high-temperature treated samples, 10^−4 M

Compound | negative effect on the plants (leaves) ([1]; control groups (suitable temperature cultivation), 10^−4 M) | negative effect / side effects on the plants [1, 5] | change of anther length at heading stage [2] | pollen formation [3] | negative effect / side effects on the plants ([1]; in vivo) | seeds produced in panicles [4] [%] | seed fertility restoration (FIG. 10) ([4]; individual of high-temperature treated group, spread at 10^−4 M)
O=C(O)COc1ccc(Cl)cc1Cl [2,4-D, 2,4-dichlorophenoxyacetic acid] | leaves stared to wither at an early stage | leaves started to wither at an early stage; also recorded: withering up at the early stage | change was hardly observed | formed normally |  |  | 
O=C(O)Cc1c[nH]c2ccccc12 [IAA, indole-3-acetic acid] |  |  | change was hardly observed | formed normally | side effects were hardly observed | ~90 | 
O=C(O)Cc1cccc2ccccc12 [NAA, 1-naphthyl acetic acid] |  | side effects were hardly observed | change was hardly observed | formed normally |  | ~90 | seed fertility restoration

— patent US8361929B2, “Method of restoring male sterility in gramineous plants and male sterility restorative agent” (Tohoku University, priority 2009, dated 2013)
